Results from patent US20230416675A1, “EFFICIENT AND RAPID SPECIFICATION OF SPINAL NEURONAL SUBTYPES FROM HUMAN PLURIPOTENT STEM CELLS” (INSERM (INSTITUT NATIONAL DE LA SANTE ET DE LA RECHERCHE …, priority 2020, published 2023).
Entries after “also recorded” stand apart in the source; their conditions may differ.

What was measured:
Type in all cases: cell-based, human
[1] = test system: induced PSC (iPSC) line; experiment: Induction of CDX2-expressing axial progenitors in an induced PSC line; conditions: CHIR increased from 3 to 4 μM
Method: Human PSC embryoid body-based differentiation was performed as previously described (Maury et al., 2015). hPSC were dissociated with cold Accutase (Life Technologies) for 3 to 5 min at 37° C. and resuspended in differentiation medium N2B27 (Advanced DMEM F12, Neurobasal vol:vol (Life Technologies)), supplemented with N2 (Life Technologies), B27 without Vitamin A (Life technologies), penicillin/streptomycin 1%, β-Mercaptoéthanol 0.1% (Life Technologies), with Y-27632 (10 μM, Stemgent or Stem Cell Technologies), CHIR-99021 (3 μM or 4 μM Selleckchem) SB431542 (20 μM, Selleckchem) and LDN 193189 (0.1 μM, Selleckchem). 2×10^5 cells ml^-1 were seeded in ultra-low attachment 6 well plates (Corning) to form embryoid bodies (EBs). All conditions of differentiation received the same medium at day 2 and at day 3 but SB431542 was removed at day 3. Then, the differentiation proceeded according to the […] presented above the figures. SAG (Smoothened Agonist, Merck millipore), FGF2 (Recombinant Human FGF basic, Peprotech), RA (Sigma-Aldrich), GDF11 (Recombinant Human/Murine/Rat GDF11, Peprotech), PD0325901 (Selleckchem), PD173074, SCH772984 (Selleckchem), DAPT (Stemgent) were added at indicated time points. For concentrations see Table S2. Media were changed every other day unless specified. […]

[2] = test system: hPSC-derived axial progenitors; experiment: Motor neuron (MN) subtype specification: immunostaining of embryoid bodies on day 14 of differentiation, proportion of MNs (ISL1+ cells) expressing HOX/FOXP1/SCIP markers; conditions: for rostro-caudal identity of MNs generated: inhibitor added at D3 up to D7, RA/SAG at D7; for efficiency of MN generation: inhibitor from D3 to D7, RA/SAG at D7; for MN identities induced: extrinsic cue added on D3 with RA/SAG, all concentrations and durations
Method: (§1) Human PSC embryoid body-based differentiation was performed as previously described (Maury et al., 2015). hPSC were dissociated with cold Accutase (Life Technologies) for 3 to 5 min at 37° C. and resuspended in differentiation medium N2B27 (Advanced DMEM F12, Neurobasal vol:vol (Life Technologies)), supplemented with N2 (Life Technologies), B27 without Vitamin A (Life technologies), penicillin/streptomycin 1%, β-Mercaptoéthanol 0.1% (Life Technologies), with Y-27632 (10 μM, Stemgent or Stem Cell Technologies), CHIR-99021 (3 μM or 4 μM Selleckchem) SB431542 (20 μM, Selleckchem) and LDN 193189 (0.1 μM, Selleckchem). 2×10^5 cells ml^−1 were seeded in ultra-low attachment 6 well plates (Corning) to form embryoid bodies (EBs). All conditions of differentiation received the same medium at day 2 and at day 3 but SB431542 was removed at day 3. Then, the differentiation proceeded according to the schemas presented above the figures. SAG (Smoothened Agonist, Merck millipore), FGF2 (Recombinant Human FGF basic, Peprotech), RA (Sigma-Aldrich), GDF11 (Recombinant Human/Murine/Rat GDF11, Peprotech), PD0325901 (Selleckchem), PD173074, SCH772984 (Selleckchem), DAPT (Stemgent) were added at indicated time points. For concentrations see Table S2. Media were changed every other day unless specified.
EBs were collected, rinsed with PBS then fixed with 4% PFA for 5 min at 4° C. and rinsed with PBS 3 times for 5 min. EBs were cryoprotected with 30% sucrose and embedded in OCT (Leica) prior sectioning with a cryostat. Alternatively, day 2, 3 and 4 progenitors were plated on Matrigel (Corning, diluted according to manufacturer recommendation) coated coverslips and let to adhere between for 30 min prior fixation with 4% PFA for 5 min at 4° C.
All immunostainings were performed as follow: cells or sections were incubated with a saturation solution (PBS/FBS 10%/0.2% Triton) for 10 minutes. Primary antibodies (Table S3) were diluted in staining solution (PBS/2% FBS/0.2% Triton) and incubated overnight at 4° C. in a humidified chamber. Following 4 PBS washes (10 min each), secondary antibodies (Alexa488, Alexa568 and Alexa647, Life Technologies, 1:1,000) were added for 1 h at RT. After 3 PBS washes, DAPI was added on the cells (Invitrogen, 1:3,000) for 5 min. Cells or slices were then mounted in Fluoromount (Sigma Aldrich or Cliniscience).
Samples were visualized and imaged using either a ZEISS LSM 880 Confocal Laser Scanning Microscope (Carl Zeiss Microscopy) controlled by Zen black software (Zeiss), a confocal microscope TCS SP5 II (Leica) or a DM6000 microscope (Leica) equipped with CoolSNAP EZ CDD camera, controlled by MetaMorph software (MetaMorph Inc). Alternatively, images were acquired using the automated microscope Cell Discoverer 7 (Zeiss), equipped with an Axiocam 506 m camera, with Zen black software (Zeiss).
All statistics were computed using Graphpad Prism software. One-way analysis of variance (ANOVA) with a Kruskall-Wallis post hoc analysis were performed following normality tests provided by Prism. In all figures, n are independent differentiations started from independent newly thawed hPSCs vials. For each condition at least 4 independent EBs were imaged in which all the cells were quantified by automated image analysis. The images were exported and saved as TIFF with Fiji if needed (Schindelin et al., 2012). Quantitative analyses on images were performed using the CellProfiler software (Carpenter et al., 2006) (Broad Institute open source at www.cellprofiler.org). DAPI stained nucleus were segmented into primary objects using CellProfiler segmentation pipeline and the nuclear mask was used to define objects on the target channels. The threshold to define positive nuclei for a given target was obtained using EBs' section negative for the target of interest. All images across conditions were then automatically analyzed in batch ensuring unbiased analysis. […]

[3] = test system: HOX genes in hPSC-derived axial progenitors; experiment: Real time PCR analysis of HOX mRNAs in progenitors; conditions: for temporal increase of HOXC6, C8 and C9 mRNAs in progenitors: inhibitor at D3, progenitors at D4 and D5
Method: as §1
Total RNA were extracted (RNAeasy Plus Mini Kit, Qiagen) and cDNA synthesized using SuperScript III (Invitrogen). Quantitative real-time PCR was performed using a 7900HT fast real time PCR system (Applied Biosystems) with Sybr Green PCR Master Mix (Applied Biosystems). Alternatively performed using QuantStudio 5 Real-Time PCR System (Thermofisher Scientific) and a mix with qPCR Brilliant II SYBR MM with low ROX (Agilent). Primers are listed in Supplementary Table 3. All expression data were normalized to Cyclophilin A mRNA. All analyses were performed with three technical replicates per plate. Relative expression levels were determined by calculating 2-ΔΔCt.

[4] = FGF2 15 ng/ml D3 to D9 together with RA/SAG
[5] = FGF2 60 ng/ml D3 to D9 together with RA/SAG
[6] = FGF2 120 ng/ml for 24 h from D3, with RA/SAG
[7] = FGF2 120 ng/ml for 48 h from D3, with RA/SAG
[8] = GDF11 25 ng/ml for 24 h with RA on D3 progenitors

Cc1cnc(-c2cnc(NCCNc3ccc(C#N)cn3)nc2-c2ccc(Cl)cc2Cl)[nH]1 [CHIR, 6-[[2-[[4-(2,4-dichlorophenyl)-5-(5-methyl-1H-imidazol-2-yl)-2 pyrimidinyl]amino]ethyl]amino]-3-pyridinecarbonitrile]
homogenous population of progenitors expressing CDX2 on D3 [1]: necessary to generate a homogenous population of progenitors expressing CDX2 on D3

CCN(CC)CCCCNc1ncc2cc(-c3cc(OC)cc(OC)c3)c(NC(=O)NC(C)(C)C)nc2n1 [PD173074, reference compound]
rostro-caudal identity of MNs generated [2]: prevent the specification of HOXC8 and HOXC9 MNs; also recorded: anterior brachial identity (HOXC6)
number of EBs collected ([2]; inhibitor from D3 to D7): reduced number of EBs
efficiency of MN generation [2]: not impacted
temporal increase of HOXC6, C8 and C9 mRNAs in progenitors [3]: prevent the temporal increase in caudal HOX expression

O=C(NOC[C@H](O)CO)c1ccc(F)c(F)c1Nc1ccc(I)cc1F [PD0325901, reference compound]
rostro-caudal identity of MNs generated [2]: anterior brachial identity (HOXC6)
rostro-caudal identity of MNs generated ([2]; listed as PD032590): prevent the specification of HOXC8 and HOXC9 MNs
efficiency of MN generation [2]: not impacted
temporal increase of HOXC6, C8 and C9 mRNAs in progenitors [3]: blocked this increase at D4 or D5
temporal increase of HOXC6, C8 and C9 mRNAs in progenitors ([3]; listed as PD032590): prevent the temporal increase in caudal HOX expression

FGF2: Recombinant Human FGF basic, Peprotech, accession P09038; FGFR agonist
Caudal brachial HOXC8 MNs [2, 4]: 68.2%
HOXC8 MNs, fold increase [2, 4]: 8.6 fold
HOXC9+/HOXC6- thoracic MNs [2, 5]: 58.9%
HOXC9+/HOXC6- thoracic MNs, fold increase [2, 5]: 82.5 fold
HOXC6 MNs ([2]; FGF2 120 ng/ml D3 to D9 together with RA/SAG): reduced slightly more HOXC6 MNs
FOXP1^high/SCIP MNs [2, 6]: 47.9%
HOXC6 MNs [2, 6]: 49.7%
HOXC8 MNs [2, 6]: 79.4%
HOXC9 MNs [2, 6]: 14.7%
FOXP1^high/SCIP MNs [2, 7]: 13.2%
HOXC6 MNs [2, 7]: 7.5%
HOXC9 MNs [2, 7]: 76.4%
MN identities induced [2]: induce more caudal MN subtypes; also recorded: more caudal MN identities were induced without the need of delaying RA addition
HOX gene expression compared to RA/SAG controls ([3]; 24 h and 48 h post FGF2 treatment): precocious increase in HOXC8, HOXC9, HOXD9 and HOXC10 expression

B1: GDF11: Recombinant Human/Murine/Rat GDF11, Peprotech; member of the TGFβ family (protein, UniProt O95390 299-407, looked up)
Growth/differentiation factor …: NLGLDCDEHSSESRCCRYPLTVDFEAFGWDWIIAPKRYKANYCSGQCEYMFMQKYPHTHLVQQANPRGSAGPCCTPTKMSPINMLYFNDKQQIIYGKIPGMVVDRCGCS
caudal thoracic or lumbar identities ([2]; GDF11 25 ng/ml for 24 h or 48 h with RA): none of the more caudal identities were observed
HOXC8 MNs [2, 8]: 58.7%
HOXC9 MNs [2, 8]: 41.0%
anterior thoracic MNs ([2]; GDF11 25 ng/ml for 48 h with RA on D3 progenitors): increasing after 48 h
MN identities induced [2]: induce more caudal MN subtypes
